The source made the active and inactive calls.
Experiments:
[1] = target: T1, Sphingosine 1-phosphate receptor 1 (Homo sapiens, UniProt P21453); assay: Late stage counterscreen assay for S1P4 antagonists: Fluorescence dose response cell-based screening assay for antagonists of the Sphingosine 1-Phosphate Receptor 1 (S1P1). [Related pubchem assays (depositor defined):AID1510, AID1524, AID1692, AID1853, AID2332, AID489009, AID489017]; format: functional
[2] = target: Sphingosine 1-phosphate receptor 2 (Homo sapiens, UniProt O95136); assay: Late stage counterscreen assay for S1P4 antagonists: Fluorescence dose response cell-based screening assay for antagonists of the Sphingosine 1-Phosphate Receptor 2 (S1P2). [Related pubchem assays (depositor defined):AID1510, AID1524, AID1692, AID1853, AID2332, AID489009, AID489017]; format: functional
Sequence of Sphingosine 1-phosphate receptor 2 (O95136 whole entry): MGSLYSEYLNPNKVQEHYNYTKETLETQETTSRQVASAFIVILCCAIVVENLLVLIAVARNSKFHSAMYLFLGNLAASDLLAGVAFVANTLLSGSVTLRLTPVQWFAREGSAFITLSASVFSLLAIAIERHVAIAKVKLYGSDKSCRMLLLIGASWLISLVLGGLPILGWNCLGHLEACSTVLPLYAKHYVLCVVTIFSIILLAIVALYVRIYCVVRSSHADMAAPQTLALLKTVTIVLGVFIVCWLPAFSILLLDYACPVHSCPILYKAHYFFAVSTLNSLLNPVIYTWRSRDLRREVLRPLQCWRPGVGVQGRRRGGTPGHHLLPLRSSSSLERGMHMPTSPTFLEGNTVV

[3] = target: Sphingosine 1-phosphate receptor 3 (Homo sapiens, UniProt Q99500); assay: Late stage counterscreen assay for S1P4 antagonists: Fluorescence dose response cell-based screening assay for antagonists of the Sphingosine 1-Phosphate Receptor 3 (S1P3). [Related pubchem assays (depositor defined):AID1510, AID1524, AID1692, AID1853, AID2332, AID489009, AID489017]; format: functional
Sequence of Sphingosine 1-phosphate receptor 3 (Q99500 whole entry): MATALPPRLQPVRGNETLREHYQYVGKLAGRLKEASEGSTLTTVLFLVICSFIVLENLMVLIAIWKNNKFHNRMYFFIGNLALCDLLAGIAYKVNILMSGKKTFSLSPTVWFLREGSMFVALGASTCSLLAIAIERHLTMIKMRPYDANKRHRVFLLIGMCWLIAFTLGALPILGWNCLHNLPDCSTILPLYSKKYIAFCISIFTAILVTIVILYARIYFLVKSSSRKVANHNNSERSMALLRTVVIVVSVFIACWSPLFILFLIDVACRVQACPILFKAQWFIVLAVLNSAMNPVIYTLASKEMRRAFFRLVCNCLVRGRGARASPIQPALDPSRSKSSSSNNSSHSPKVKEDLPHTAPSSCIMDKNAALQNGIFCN

[4] = target: T1, Sphingosine 1-phosphate receptor 1; format: functional
[5] = target: T2, Sphingosine 1-phosphate receptor 4 (Homo sapiens, UniProt O95977); assay: Late stage fluorescence dose response cell-based screening assay for antagonists of the Sphingosine 1-Phosphate Receptor 4 (S1P4). [Related pubchem assays: 1524 (Confirmation screen (S1P4 antagonists).), 1510 (Primary screen (S1P4 antagonists).), 1853 (Summary AID (S1P4 antagonists).), 1692 (Dose response screen (S1P4 antagonists).)]; format: functional
T2 sequence (O95977 whole entry): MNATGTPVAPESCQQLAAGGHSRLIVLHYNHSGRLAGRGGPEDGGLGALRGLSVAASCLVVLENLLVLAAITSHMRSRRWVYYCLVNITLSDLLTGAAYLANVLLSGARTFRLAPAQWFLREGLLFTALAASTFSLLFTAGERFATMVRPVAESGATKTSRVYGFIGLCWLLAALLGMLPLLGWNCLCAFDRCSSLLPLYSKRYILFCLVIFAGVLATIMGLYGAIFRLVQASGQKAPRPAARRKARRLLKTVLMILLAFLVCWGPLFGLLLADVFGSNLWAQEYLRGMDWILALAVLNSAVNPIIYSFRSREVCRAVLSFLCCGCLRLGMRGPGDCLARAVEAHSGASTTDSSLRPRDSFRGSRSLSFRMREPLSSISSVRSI

[6] = target: Sphingosine 1-phosphate receptor 5 (Homo sapiens, UniProt Q9H228); assay: Late stage counterscreen assay for S1P4 antagonists: Fluorescence dose response cell-based screening assay for antagonists of the Sphingosine 1-Phosphate Receptor 5 (S1P5). [Related pubchem assays (depositor defined):AID1510, AID1524, AID1692, AID1853, AID2332, AID489009, AID489017]; format: functional
Sequence of Sphingosine 1-phosphate receptor 5 (Q9H228 whole entry): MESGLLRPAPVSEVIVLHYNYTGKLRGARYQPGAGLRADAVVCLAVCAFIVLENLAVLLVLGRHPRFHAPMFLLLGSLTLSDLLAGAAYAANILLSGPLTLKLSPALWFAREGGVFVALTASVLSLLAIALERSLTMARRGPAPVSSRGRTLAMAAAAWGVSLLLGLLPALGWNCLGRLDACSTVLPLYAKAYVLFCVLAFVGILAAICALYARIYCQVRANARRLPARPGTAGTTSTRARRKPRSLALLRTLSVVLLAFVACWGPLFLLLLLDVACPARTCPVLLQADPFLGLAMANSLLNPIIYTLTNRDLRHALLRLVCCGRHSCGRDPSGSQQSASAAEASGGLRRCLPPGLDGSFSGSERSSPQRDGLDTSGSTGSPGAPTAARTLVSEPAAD

[7] = target: T2, Sphingosine 1-phosphate receptor 4; assay: Fluorescence dose response cell-based high throughput screening assay for antagonists of the Sphingosine 1-Phosphate Receptor 4 (S1P4). [Related pubchem assays: 1524 (Confirmation in triplicates.), 1510 (Primary screen.)]; format: functional
[8] = target: Peroxisome proliferator-activated receptor gamma/Nuclear receptor coactivator 2 (Homo sapiens, UniProt P37231); format: functional;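 also: agonist potency for raising coactivator recruitment to the receptor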
Sequence of Peroxisome proliferator-activated receptor gamma/Nuclear receptor coactivator 2 (P37231 whole entry): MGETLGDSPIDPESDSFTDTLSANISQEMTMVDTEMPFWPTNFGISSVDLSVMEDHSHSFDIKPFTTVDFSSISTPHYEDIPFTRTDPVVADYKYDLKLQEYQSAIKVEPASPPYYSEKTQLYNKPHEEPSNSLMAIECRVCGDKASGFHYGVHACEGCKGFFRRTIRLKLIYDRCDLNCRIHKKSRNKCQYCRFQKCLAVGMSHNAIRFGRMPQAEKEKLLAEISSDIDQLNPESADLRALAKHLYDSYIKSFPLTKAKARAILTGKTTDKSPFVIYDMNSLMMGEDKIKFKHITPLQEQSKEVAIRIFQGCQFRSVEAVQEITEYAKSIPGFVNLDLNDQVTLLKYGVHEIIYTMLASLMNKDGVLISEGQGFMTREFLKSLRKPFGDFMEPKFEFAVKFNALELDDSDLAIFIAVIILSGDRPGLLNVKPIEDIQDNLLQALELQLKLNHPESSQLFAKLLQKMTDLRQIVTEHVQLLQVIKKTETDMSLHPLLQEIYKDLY
Sequence of Peroxisome proliferator-activated receptor gamma/Nuclear receptor coactivator 2 (Q15596 whole entry, further chain): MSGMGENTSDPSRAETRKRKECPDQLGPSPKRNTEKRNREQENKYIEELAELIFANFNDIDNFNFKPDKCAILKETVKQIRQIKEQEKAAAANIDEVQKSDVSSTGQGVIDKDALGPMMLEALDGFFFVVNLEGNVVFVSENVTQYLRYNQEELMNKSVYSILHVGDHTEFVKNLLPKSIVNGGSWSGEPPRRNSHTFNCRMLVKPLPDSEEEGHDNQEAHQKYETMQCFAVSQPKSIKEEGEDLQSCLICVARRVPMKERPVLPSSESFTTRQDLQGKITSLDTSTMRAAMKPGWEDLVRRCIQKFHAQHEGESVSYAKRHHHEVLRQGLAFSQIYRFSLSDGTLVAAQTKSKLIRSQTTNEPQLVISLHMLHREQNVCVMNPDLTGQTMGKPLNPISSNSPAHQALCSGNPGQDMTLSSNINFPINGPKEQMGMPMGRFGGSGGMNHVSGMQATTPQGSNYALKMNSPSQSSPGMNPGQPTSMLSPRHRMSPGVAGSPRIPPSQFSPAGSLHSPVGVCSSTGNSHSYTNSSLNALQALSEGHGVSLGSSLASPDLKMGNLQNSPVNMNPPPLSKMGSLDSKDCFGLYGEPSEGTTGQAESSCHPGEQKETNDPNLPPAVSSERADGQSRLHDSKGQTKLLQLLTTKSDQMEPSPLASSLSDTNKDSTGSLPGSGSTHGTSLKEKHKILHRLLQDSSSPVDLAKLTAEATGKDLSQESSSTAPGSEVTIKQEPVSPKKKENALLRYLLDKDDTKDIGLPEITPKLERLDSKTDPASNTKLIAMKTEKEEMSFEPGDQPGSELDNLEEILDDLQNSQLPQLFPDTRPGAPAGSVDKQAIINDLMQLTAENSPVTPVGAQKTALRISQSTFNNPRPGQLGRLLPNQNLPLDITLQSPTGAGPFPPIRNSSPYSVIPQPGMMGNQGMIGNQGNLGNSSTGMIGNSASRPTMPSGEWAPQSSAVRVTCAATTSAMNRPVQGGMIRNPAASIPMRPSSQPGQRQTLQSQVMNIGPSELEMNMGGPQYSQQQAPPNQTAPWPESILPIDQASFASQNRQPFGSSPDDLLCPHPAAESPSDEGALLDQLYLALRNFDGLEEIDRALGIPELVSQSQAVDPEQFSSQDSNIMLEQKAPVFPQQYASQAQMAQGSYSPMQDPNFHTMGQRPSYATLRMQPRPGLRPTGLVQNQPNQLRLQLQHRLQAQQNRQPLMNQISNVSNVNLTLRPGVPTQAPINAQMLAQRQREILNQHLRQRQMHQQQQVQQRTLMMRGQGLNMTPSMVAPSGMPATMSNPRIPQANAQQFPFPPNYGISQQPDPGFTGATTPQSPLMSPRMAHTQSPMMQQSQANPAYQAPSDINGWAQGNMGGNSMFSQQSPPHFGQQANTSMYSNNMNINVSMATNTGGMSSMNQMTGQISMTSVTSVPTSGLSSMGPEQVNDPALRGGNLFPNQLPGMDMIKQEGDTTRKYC

[9] = target: Peroxisome proliferator-activated receptor gamma/Nuclear receptor corepressor 2 (Homo sapiens, UniProt P37231+Q9Y618); assay: Counterscreen for NR2E3 inverse agonists: TR-FRET-based biochemical high throughput dose response assay to identify inverse agonists of the interaction between peroxisome proliferator-activated receptor gamma (PPARg) and nuclear receptor co-repressor 2 (NCOR2).; format: functional
[10] = target: Photoreceptor-specific nuclear receptor (Homo sapiens, UniProt Q9Y5X4); assay: NR2E3 inverse agonists, dose response, biochemical, TR-FRET (AID 463256); format: functional
Sequence of Photoreceptor-specific nuclear receptor (Q9Y5X4 whole entry): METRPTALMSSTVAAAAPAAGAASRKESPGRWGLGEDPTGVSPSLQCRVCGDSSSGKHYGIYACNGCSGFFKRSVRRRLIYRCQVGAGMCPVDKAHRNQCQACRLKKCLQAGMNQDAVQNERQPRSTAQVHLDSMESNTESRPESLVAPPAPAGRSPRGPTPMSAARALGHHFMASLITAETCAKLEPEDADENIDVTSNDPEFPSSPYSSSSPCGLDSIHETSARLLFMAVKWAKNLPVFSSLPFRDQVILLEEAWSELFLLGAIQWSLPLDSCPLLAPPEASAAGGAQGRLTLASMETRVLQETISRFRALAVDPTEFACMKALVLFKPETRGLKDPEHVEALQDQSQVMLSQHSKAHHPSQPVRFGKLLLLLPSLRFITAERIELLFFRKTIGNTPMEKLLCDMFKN

[11] = target: Peroxisome proliferator-activated receptor gamma/Nuclear receptor coactivator 1 (Homo sapiens, UniProt P37231); format: functional;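 also: agonist potency as compounds enhance coactivator SRC-1 recruitment to PPARgamma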
[12] = target: Peroxisome proliferator-activated receptor gamma/Nuclear receptor coactivator 3 (Homo sapiens, UniProt P37231); format: functional;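 also: agonist potency for raising coactivator recruitment to the receptor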
[13] = target: T3, Oxysterols receptor LXR-beta (Homo sapiens, UniProt P55055); assay: LXR agonists, Gal4 luciferase reporter, dose response, counter-screen for ssDAF-12 agonist project, cell-based, luminescence, HEK293, S. stercoralis campaign (AID 720737); format: functional; conditions: read-out: IC50 (the source's name)
T3 sequence (P55055 whole entry): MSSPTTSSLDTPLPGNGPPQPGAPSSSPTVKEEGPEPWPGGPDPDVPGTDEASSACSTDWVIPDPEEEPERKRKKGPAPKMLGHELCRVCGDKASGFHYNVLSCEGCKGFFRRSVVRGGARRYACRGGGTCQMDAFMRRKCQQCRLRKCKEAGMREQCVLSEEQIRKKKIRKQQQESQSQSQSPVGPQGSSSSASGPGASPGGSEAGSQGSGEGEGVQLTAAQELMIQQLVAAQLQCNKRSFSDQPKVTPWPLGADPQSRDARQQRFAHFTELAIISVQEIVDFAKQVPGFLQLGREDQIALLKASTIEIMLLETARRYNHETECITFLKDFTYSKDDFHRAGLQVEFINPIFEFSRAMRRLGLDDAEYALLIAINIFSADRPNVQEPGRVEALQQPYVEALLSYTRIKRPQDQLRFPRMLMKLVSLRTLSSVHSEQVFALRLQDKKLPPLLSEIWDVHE

[14] = Luminescence-based cell-based high throughput dose response assay to identify activators of the DAF-12 from the parasite S. stercoralis (ssDAF-12).; format: functional
[15] = target: Transthyretin (Homo sapiens, UniProt P02766); assay: Luminescence-based cell-based high throughput dose response assay to identify activators of Transthyretin (TTR) transcription.; format: functional
[16] = P. falciparum Dd2 blood-stage growth inhibition, dose response, SYBR Green fluorescence, erythrocytes, dry powder, set 2 (AID 1159574); format: functional, cell-based
[17] = target: T4, Leucine aminopeptidase (Plasmodium falciparum 3D7, UniProt Q8IL11); assay: P. falciparum M17LAP inhibitors, primary screen, biochemical, fluorogenic H-Leu-NHMec substrate, 1536-well (AID 1619); format: functional
T4 sequence (Q8IL11 whole entry): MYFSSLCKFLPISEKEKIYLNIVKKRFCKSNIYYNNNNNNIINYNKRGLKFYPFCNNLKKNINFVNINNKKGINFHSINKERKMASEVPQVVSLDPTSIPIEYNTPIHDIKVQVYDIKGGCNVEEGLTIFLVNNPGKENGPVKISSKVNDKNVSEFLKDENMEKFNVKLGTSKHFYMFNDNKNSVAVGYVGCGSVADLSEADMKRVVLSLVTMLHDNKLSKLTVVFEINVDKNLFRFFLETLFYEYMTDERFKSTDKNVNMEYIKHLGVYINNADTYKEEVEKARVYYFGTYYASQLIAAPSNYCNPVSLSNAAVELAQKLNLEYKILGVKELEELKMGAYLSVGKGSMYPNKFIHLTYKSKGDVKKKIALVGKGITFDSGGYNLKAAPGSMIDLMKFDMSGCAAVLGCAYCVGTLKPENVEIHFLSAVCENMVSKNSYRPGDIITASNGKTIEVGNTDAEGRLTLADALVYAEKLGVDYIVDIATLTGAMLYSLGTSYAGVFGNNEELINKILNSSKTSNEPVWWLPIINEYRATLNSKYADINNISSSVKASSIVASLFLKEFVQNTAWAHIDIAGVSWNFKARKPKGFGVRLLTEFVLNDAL

[18] = target: Solute carrier family 12 member 2/member 5 (Homo sapiens, UniProt P55011+Q9H2X9); assay: KCC2 and NKCC1 inhibition by rubidium flux, cell-based, NKCC1 counter-screen (AID 1734); format: functional, HEK293

T1 sequence (P21453 whole entry): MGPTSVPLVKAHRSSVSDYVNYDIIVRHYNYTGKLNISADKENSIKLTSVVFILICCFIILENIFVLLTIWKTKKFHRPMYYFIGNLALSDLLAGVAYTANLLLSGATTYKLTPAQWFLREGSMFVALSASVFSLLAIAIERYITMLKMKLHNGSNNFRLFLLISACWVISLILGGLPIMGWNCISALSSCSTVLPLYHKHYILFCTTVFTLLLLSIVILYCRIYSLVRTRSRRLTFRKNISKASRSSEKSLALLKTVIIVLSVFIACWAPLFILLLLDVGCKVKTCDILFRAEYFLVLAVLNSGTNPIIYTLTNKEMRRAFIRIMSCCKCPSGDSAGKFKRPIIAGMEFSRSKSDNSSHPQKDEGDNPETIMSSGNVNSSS

For `Cc1cc(NC(=O)/C=C/c2ccccc2)c(C(C)C)cc1O`, the IC50 [1] was > 25 µM (inactive), the IC50 [2] was > 25 µM (inactive) and the IC50 [3] was > 25 µM (inactive). For the same molecule, the IC50 [4] was > 49.8 µM (not active), the IC50 [5] was 0.338 µM (active) and the IC50 [6] was > 25 µM (inactive). For the same molecule, the IC50 [7] was 0.852 µM (active).

In the case of `Cc1cccc(NC(=O)c2sc3nc(-c4ccc(F)cc4)cn3c2C)n1`, the EC50 [8] is reported as 12.3 µM (not active), the IC50 [9] is reported as 1.18 µM (active) and the IC50 [10] is reported as 1.17 µM (active). The EC50 [11] was 16.8 µM (not active) and the EC50 [12] was 22.5 µM (not active).

In the case of `O=C(Nc1cccc(O)c1)c1c(O)nc2ccccc2c1O`, the EC50 [13] is reported as > 67.5 µM (inactive) and the IC50 [14] is reported as > 67.5 µM (inactive).

In the case of `Cc1nn(C)c(C(=O)N2CCc3ccccc32)c1Br`, the EC50 [15] is reported as > 167 µM (inactive).

For `COc1ccc(S(=O)(=O)N(C)C[C@H]2OCc3ccccc3-c3c(n(C)c4ccccc34)C(=O)N([C@@H](C)CO)C[C@H]2C)cc1`, the AC50 [16] was 5.13 µM (active).

With `Cc1ccc(Nc2nnc(SCC(=O)c3cc4ccccc4o3)s2)cc1C` the IC50 [17] was 19.8 µM (active) and the IC50 [18] was 0.64 µM (active).
